Assays:
periportal liver = conditions: in vivo; cited from earlier work
[1] = system: Spraque Dawley male white mice; assay: Extent of hepatic fibrosis by histological examination (Batts and Ludwig classification) after repeated allylalcohol injection; format: in vivo, white mouse
Procedure: (§1) Of the forty total Spraque Dawley male white mice(weight 150-200 g), 10 mice were used as a control group and 30 mice were treated with allylalcohol.
(§2) 30 mice with treated allylalcohol were devided into three groups, each containing 10 mice. The 1st group was administered an injection with allylalcohol dissolved in saline solution with 0.3 mmole/kg into a peritoneal cavity twice a week. The 2nd and 3rd groups received 0.62 mmole/kg and 0.93 mmole/kg of allylalcohol, respectively, via the same method.
(§3) The animals were maintained 23° C. and 40% of relative humidity. The intensity of illumination was maintained for 12 hours from 6 A.M. to 6 P.M. They were sacrificed after 8 weeks.
(§4) The present inventors used total of 30 Spraque-Dawley male white mice, injected 0.62 mmole/kg allylalcohol into the peritoneal cavity twice a week, and sacrificed ten mice each time after 4 weeks, 8 weeks, and 16 weeks.
(§5) The liver tissues of 30 mice obtained from the Example <1-2> were fixed in 10% formalin solution, stained with Masson's trichrome, and observed for the determination of fibrosis under light microscope.

[2] = system: Spraque-Dawley male white mice; assay: Quantification of hepatic fibrosis by the numerical scoring system; format: in vivo, white mouse
Source text: In order to include width of fibrosis septa and fibrosis development in sinusoid as well as that between the portals, these inventors had quantified the extent of the fibrosis using the numerical scoring system reported by Castilla-Cortaza(1997) and Oberti (1997).
To systemically analyze the result of the numerical scoring system, these inventors also used the Image precessing and analysis system program (Leica Q500 MC, Leica Cambridge Ltd, Cambridge, U. K., 1994).
The length of septa was classified as score “4” when the septa showing fibrosis from one portal to the other is one whole length, score “3” for up to ⅔, score “2” for up to ⅓, and score “1” for less than ⅓. For the width of septa, the score from 2-6 was given for the mean of widths of three different periportal septa, centriperiveinal septa and perinodal septa at four different sites.
The number for the width of septa was determined by measuring the fibrotic region of blood vessel in one node that score “4” when the whole node was filled with the fibrotic strand and a large number of the septa made the micronode, score “3” when the fibrosis region occupied up to ⅔ of the whole node area, score “2” up to ⅓, and score “1” when the fibrosis strand was little in the node.
as §4, §5

[3] = system: Spraque Dawley male white mice; assay: Death during repeated allylalcohol treatment; format: in vivo, white mouse
Procedure: as §1, §2, §3, §4

[4] = system: Spraque-Dawley male white mice; assay: Serum alanine aminotransferase (ALT) activity; format: in vivo, white mouse; conditions: 0.62 mmole/kg i.p. twice a week
Procedure: as §4
To collect a specimen, the white mouse was sacrificed 72 hours after final injection. The mouse was put under general anesthesia using diethylether, and its abdomen was cut open at suspine position. 7-10 ml of whole blood was withdrawn with a syringe treated with heparine, and the liver tissue was extracted.
The collected blood sample was left at room temperature for 30 min, centrifuged at 3,000 g for 10 min. The serum was devided into several fractions and stored at −70° C. until used.
Serum alanine aminotransferase(hereinafter, as referred as “ALT”) activity was measured by using the automatic analyzer (Hitach, 747/200 type), which is based on the spectrophotometric quantification of […] loss using lactic dehydrogenase as a […] (Horder and Rej, 1983).

[5] = system: Spraque-Dawley male white mice; assay: Collagen content of liver tissues (dye-binding procedure of Jimenez); format: in vivo, white mouse; conditions: liver tissue
Procedure: The collagen content of liver tissues was measured by dye-binding procedure of Jimenez. The liver tissue fixed in 10% formalin and embedded in paraffin was sliced by 15 um of thickness and put on a slide glass.
After the paraffin was removed by xylene and alcohol, the sample was stained with the saturated picric acid solution containing 0.01% fast green FCF (Fluka AG, NO 42053, Switzerland), left at room temperature for 15 min, and washed with a phosphate buffer until most color came off. The sample was restained with the saturated picric acid solution containing 0.04% fast green and 0.1% Sirius red F3B (Gurr BDH Chemical Ltd., NO 34149, Poole, England), left at room temperature for 30 min in the darkroom, and washed as before.
The stained tissue sample was transferred into the tube containing 1 ml solution with equal volume of 0.1% sodium hydroxide and methanol, and the tube was slowly shaken until the color dissolved completely. The absorbance of the colored solution was measured with a spectrophotometer. The wavelength for maximum absorbance was 630 nm for fast green, and 540 nm for Sirius red. Since fast green also absorbed a little (7.78%) at 540 nm, these inventors made calculations correcting for the factor.
The amount of collagen per unit protein was obtained with the formula 1 using the color equivalence of 3 OD/mg protein and 37 OD/mg collagen for fast green and Sirius red, respectively. [formula]

TGF β1 mRNA = assay: Semi-quantitative measurement of TGF β1 mRNA expression in the liver tissue by RT-PCR; format: in vivo, white mouse
Procedure: Total RNA of the mouse liver tissue stored at −70° C. was extracted by one-step method using acid guanidinium thiocyanate-phenol-chloroform (AGPC, 1987) of Chomczynski and Sacchi. […] of the frozen liver tissue was homogenized in 1 ml of denaturing solution (4 M guanidinium thiocyanate, 25 mM sodium citrate, pH 7, 0.5% sarcosyl, 0.1 M 2-mercapto ethanol).
After the addition of 1 ml of phenol and 100 ul of chloroform were added to it, the homogenate was shaken thoroughly for 15 sec, left at 4° C. for 5 min, and centrifuged at 12,000 g and 4° C. for 15 min. The supernatant (aqueous phase) was withdrawn, mixed with equal volume of isopropanol, left at 4° C. for 15 min, and centrifuged as before.
RNA pellet was collected, washed with 75% ethanol twice, and centrifuged at 7,500 g and 4° C. for 8 min to remove ethanol. RNA pellet was dried under vacuum using the Speed Vac concentrator at −70° C. for 15 min. The dried RNA was dissolved in 20 ul of deionized distilled water(DDW) treated with 0.1% di-ethyl-pyro-carbonate (DEPC), and stored at −70° C. RNA concentration was determined by spectrophotometric measurement of absorbance at 260 nm. When the absorption ratio of A260/A280 used as an index of purity, exceeds 1.8, RNA samples were considered pure.
For the synthesis of cDNA of TGF β1 mRNA, 2 ul of total RNA extracted from the mouse liver tissue was mixed with 10 unit of Molony murine leukemia virus reverse transcriptase(M-MuLV RT), 100 ng of oligo-dT15, 1 ul of dNTP (dGTP, dATP, dTTP, dCTP), RNase inhibitor 20 unit, 0.5 ul of 100 mM dithitritol (DTT) and 4 ul of 5×buffer solution, and total volume of the reaction mixture was adjusted to 20 ul by adding 0.1% DEPC-treated DDW.
The reaction mixture was heated at 37° C. for 90 min and 95° C. for 5 min, and rapidly cooled down on ice. 80 ul of DDW was added to this cDNA mixture which was then used as a PCR template.
For amplification of TGF β1 cDNA template, a sense-primer represented by SEQ ID NO.1 and an antisense-primer represented by SEQ ID NO.2 was synthesized. The position and the PCR product size of the primer set were described in Table 7. The concentration of the synthesized primer was adjusted to 10 pmole/ul by dissolving in TE buffer solution and stored at −20° C. until used.
cDNA solution was diluted by two times until the concentration was to be 2^−1, 2^−2, 2^−3, , , , , and 2^−10, and used as PCR templates. 50 ul total of PCR reaction solution contained 4 ul of cDNA template solution, 1 unit of Taq DNA polymerase, each of 1 ul the antisense and the sense primer, 1 ul of dNTP, 5 ul of 10×buffer solution (containing 2.5 mM MgCl2) and 37.7 ul of DDW.
To prevent vaporization of the sample at high temperature, 20 ul of mineral oil was added to the reaction mixture. PCR reaction was performed with PCR automated thermal cycler (Perkin Elmer) by using a hot start method. The hot start method included a denaturation step at 94° C. for 4 min, and the primer annealing and extension step at 65° C. for 15 min (at this step, Taq DNA polymerase was added after 10 min).
The reaction system then underwent 35 cycles of heating 94° C. for 45 sec, 60° C. for 45 sec, and 72° C. for 2 min, and the extension step was completed with 5 min heating at 72° C. In the RNA synthesis, negative control was distilled water, and positive control was 1 ul of TGF β1 cDNA fragment solution provided from a Clontech Laboratory.
The amplified PCR product mixed with 6×DNA loading buffer (0.25% bromophenol blue, 0.25% xylene cylanol, 30% glycol) was analyzed by electrophoresis using 2% agarose gel containing 1 ul ethidium bromide with 1×TBE buffer solution(89 mM tris-borate, 2 mM EDTA). After the electrophoresis at 100 volt for 60 min, UV transilluminator was used to establish the visible band(FIG. 3).

mouse = mouse treated with carbon tetrachloride, cited from earlier work
[6] = 0.62 mmole/kg i.p. twice a week, 16 weeks
[7] = 2nd group, 0.62 mmole/kg i.p. twice a week, 8 weeks
[8] = liver tissues of the 30 mice of Example 1-2, Masson's trichrome
[9] = 0.62 mmole/kg i.p. twice a week, 4 weeks
[10] = 0.62 mmole/kg i.p. twice a week, 8 weeks

Compound: C=CC=O [Acrolein, acrolein]
- liver toxicity (periportal liver): intense liver toxicity

Compound: C=CCO [allylalcohol, Allylalcohol]
- number of mice with cirrhosis [1, 6]: 5
- number of mice with moderate hepatic fibrosis [1, 6]: 2
- number of mice with severe hepatic fibrosis [1, 6]: 3
- number of mice with mild hepatic fibrosis [1, 7]: 1
- number of mice with severe hepatic fibrosis [1, 7]: 5
- number of mice with severe hepatic fibrosis ([1]; 3rd group, 0.93 mmole/kg i.p. twice a week, 8 weeks): 2
- number of samples classified as cirrhosis [1, 8]: 5
- number of samples classified as mild [1, 8]: 7
- number of samples classified as moderate [1, 8]: 5
- number of samples classified as normal [1, 8]: 4
- number of samples classified as severe [1, 8]: 8
- number of mice with numerical score 1 [2, 9]: 10
- number of mice with numerical score 8 [2, 10]: 4
- number of mice with numerical score 9 [2, 10]: 1
- number of mice with numerical score 10 [2, 10]: 1
- number of mice with numerical score 11 [2, 10]: 2
- number of mice with numerical score 12 [2, 10]: 1
- number of mice with numerical score 7 [2, 6]: 1
- number of mice with numerical score 8 [2, 6]: 1
- number of mice with numerical score 10 [2, 6]: 1
- number of mice with numerical score 11 [2, 6]: 1
- number of mice with numerical score 12 [2, 6]: 3
- number of mice with numerical score 13 [2, 6]: 2
- number of mice with numerical score 14 [2, 6]: 1
- extent of hepatic fibrosis by the numerical scoring system, all the animals ([2]; 4-week group, 0.62 mmole/kg i.p. twice a week): less than 2
- extent of hepatic fibrosis by the numerical scoring system, all the animals ([2]; 8-week group, 0.62 mmole/kg i.p. twice a week): higher than 7
- extent of hepatic fibrosis by the numerical scoring system, all the animals ([2]; 16-week group, 0.62 mmole/kg i.p. twice a week): higher than 7
- numerical score ([2]; cirrhosis group of the 30 treated mice): 12.4±1.5
- numerical score ([2]; mild group of the 30 treated mice): 2.6±1
- numerical score ([2]; moderate group of the 30 treated mice): 9.0±1.7
- numerical score ([2]; printed 'control group' (first histological class) of the 30 treated mice): 1.0±0
- numerical score ([2]; severe group of the 30 treated mice): 9.8±1.5
- number of tissue samples with score of 1-6 ([2]; treated mice of Example 1-2): 10
- number of tissue samples with score of 7-10 ([2]; treated mice of Example 1-2): 9
- number of tissue samples with score of 11-14 ([2]; treated mice of Example 1-2): 10
- death (number of mice) [3, 9]: 0
- death (number of mice) ([3]; 0.62 mmole/kg i.p. twice a week, 8 weeks (Example 1-2)): 1
- death (number of mice) [3, 6]: 0
- death (number of mice) ([3]; 1st group, 0.3 mmole/kg i.p. twice a week, 8 weeks): 0
- ALT activity ([4]; 4 weeks): 69.6±39.8 U/L
- ALT activity ([4]; 8 weeks): 63.8±9.6 U/L
- ALT activity ([4]; 16 weeks): 75.5±15.9 U/L
- Collagen content ([5]; treated for 4 weeks): 110.2±11.9 ug collagen/mg protein
- Collagen content ([5]; treated for 8 weeks): 132.5±29.3 ug collagen/mg protein
- Collagen content ([5]; treated for 16 weeks): 157.2±94.7 ug collagen/mg protein
- Collagen content ([5]; treated mice with score 1-6): 110.2±11.9 ug collagen/mg protein
- Collagen content ([5]; treated mice with score 7-10): 131.4±30.0 ug collagen/mg protein
- Collagen content ([5]; treated mice with score 11-14): 158.2±94.2 ug collagen/mg protein
- TGF β1 mRNA (TGF β1 mRNA; treated for 4 weeks, Table 9 line printed 'Score 1-6'): 4.7±2.4 unit/total RNA 2 ug
- TGF β1 mRNA (TGF β1 mRNA; treated for 8 weeks, Table 9 line printed 'Score 7-10'): 5.8±1.0 unit/total RNA 2 ug
- TGF β1 mRNA (TGF β1 mRNA; treated for 16 weeks, Table 9 line printed 'Score 11-14'): 5.7±2.3 unit/total RNA 2 ug
- TGF β1 mRNA (TGF β1 mRNA; treated mice with score 1-6): 4.7±2.4 unit/total RNA 2 ug
- TGF β1 mRNA (TGF β1 mRNA; treated mice with score 7-10): 5.8±1.5 unit/total RNA 2 ug
- TGF β1 mRNA (TGF β1 mRNA; treated mice with score 11-14): 5.7±2.0 unit/total RNA 2 ug

Compound: ClC(Cl)(Cl)Cl [carbon tetrachloride]
- induction period (mouse; pretreatment with phenobarbitol): 8-10 weeks
- time to irreversible accumulation of collagen (mouse): ≤ 20 weeks

From patent publication US6479555B1, “Method for inducing hepatic fibrosis by repeated administration of allylalcohol” (priority 2000, dated 2002)
